Molecular target: T1, human ATP13A3 WT (A3 WT-OE) (Homo sapiens, UniProt Q9H7F0)
T1 construct: compared with catalytically dead D498N
T1 sequence (Q9H7F0 1-1226): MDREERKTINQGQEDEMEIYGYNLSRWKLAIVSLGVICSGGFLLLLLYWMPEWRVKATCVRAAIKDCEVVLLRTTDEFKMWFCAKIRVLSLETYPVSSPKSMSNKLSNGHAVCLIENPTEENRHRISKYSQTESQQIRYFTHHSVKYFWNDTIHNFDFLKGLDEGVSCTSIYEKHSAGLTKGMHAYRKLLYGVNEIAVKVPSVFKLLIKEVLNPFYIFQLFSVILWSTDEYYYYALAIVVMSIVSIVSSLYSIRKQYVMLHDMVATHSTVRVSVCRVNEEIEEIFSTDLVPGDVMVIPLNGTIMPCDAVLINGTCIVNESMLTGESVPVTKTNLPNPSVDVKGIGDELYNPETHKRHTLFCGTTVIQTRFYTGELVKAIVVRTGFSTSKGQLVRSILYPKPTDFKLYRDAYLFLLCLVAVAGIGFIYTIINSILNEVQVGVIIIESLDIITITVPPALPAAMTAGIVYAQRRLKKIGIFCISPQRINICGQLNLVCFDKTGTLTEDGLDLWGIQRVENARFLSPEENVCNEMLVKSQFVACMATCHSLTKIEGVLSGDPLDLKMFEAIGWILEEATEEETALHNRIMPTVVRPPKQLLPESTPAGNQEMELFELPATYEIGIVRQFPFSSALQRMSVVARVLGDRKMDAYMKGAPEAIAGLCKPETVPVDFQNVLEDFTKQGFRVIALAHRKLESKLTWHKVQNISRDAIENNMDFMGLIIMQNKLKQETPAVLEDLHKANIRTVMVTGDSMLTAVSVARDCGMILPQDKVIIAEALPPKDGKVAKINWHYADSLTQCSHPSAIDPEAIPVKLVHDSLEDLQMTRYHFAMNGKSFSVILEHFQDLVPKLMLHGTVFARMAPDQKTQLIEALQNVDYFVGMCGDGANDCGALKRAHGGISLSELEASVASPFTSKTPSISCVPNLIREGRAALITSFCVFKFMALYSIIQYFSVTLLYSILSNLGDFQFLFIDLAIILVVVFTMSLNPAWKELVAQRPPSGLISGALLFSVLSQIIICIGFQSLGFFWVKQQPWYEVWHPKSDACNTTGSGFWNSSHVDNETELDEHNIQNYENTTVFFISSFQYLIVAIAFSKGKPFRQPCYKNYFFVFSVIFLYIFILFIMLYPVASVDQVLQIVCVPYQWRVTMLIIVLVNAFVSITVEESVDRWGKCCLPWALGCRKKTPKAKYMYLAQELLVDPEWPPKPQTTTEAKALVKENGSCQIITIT
Test: radiolabeled uptake in HMEC-1 cells, WT versus D498N overexpression
Type: cell-based
Details: 30 min, 37 °C, labelled compound

SMILES | fold uptake at 5 μM [fold]
NCCCCNCCCN [14C-SPD] | 41
NCCCCN [14C-PUT] | 26

From publication PMC9953717, “Novel Green Fluorescent Polyamines to Analyze ATP13A2 and ATP13A3 Activity in the Mammalian Polyamine Transport System” (Biomolecules, 2023)
